Source: patent US9834537B2, “Compounds as chloride channel blocking agent” (Korea Institute of Science and Technology, priority 2013, dated 2017)

Biological target: calcium ion-activated chloride channel (Xenopus laevis, UniProt B5SVV6)
Experiment: Patch clamp method: two-electrode voltage clamp recording on Xenopus laevis eggs, calcium-dependent chloride channel blocking activity
Assay type: cell-based
Method: Meanwhile, with regard to the novel compound represented by formula 1 according to the present invention, calcium-dependent chloride channel blocking activity was assessed by a patch clamp method according to the following experimental examples. Eggs of African Xenopus laevis were collected through surgical operation, immersed in a Barth's solution [88 mM NaCl, 1 mM KCl, 2.4 mM NaHCO3, 10 mM HEPES, 0.82 mM MgSO4, 0.33 mM Ca(NO3)2, 0.91 mM CaCl2 (all of which were purchased from Sigma Co.); 10 units/mL peniciline, and streptomycin (purchased from Gibco Co.)], and cultured in an incubator at a constant temperature of 18° C. Such prepared eggs were treated using 10 μM ionomycin (Sigma) for 30 minutes. A recording solution (96 mM NaCl, 2 mM KCl, 10 mM HEPES, 3 mM NaOH, 2 mM MgCl2, 0.5 mM EGTA, Sigma) was prepared and the eggs treated with ionomycin were rinsed using the prepared recording solution. Further, the eggs, after treating with 1 μM thapsigargin (Sigma) for 2 hours, were rinsed again using the recording solution to prepare eggs for recording. Next, an intracellular solution was prepared by adding 0.5 mM EGTA and 1 μM chelerythrine (Sigma) to 1 M KCl solution, then, charged in a glass micro-electrode. One of the prepared eggs was placed on a chamber and two micro-electrodes were stuck into both sides of the egg while dripping the recording solution over the egg. According to a protocol corresponding to purposes for experiments, two-electrode voltage clamp recording was executed to measure an electrical current.

[1] = Table 2 upper part, naphthyl compounds of formula 1b (scaffold drawing 37; * = position of naphthyl attachment)
[2] = calcium ion-activated chloride channel, Xenopus laevis eggs, two-electrode voltage clamp

Chain of calcium ion-activated chloride channel (B5SVV6 entry or part of it): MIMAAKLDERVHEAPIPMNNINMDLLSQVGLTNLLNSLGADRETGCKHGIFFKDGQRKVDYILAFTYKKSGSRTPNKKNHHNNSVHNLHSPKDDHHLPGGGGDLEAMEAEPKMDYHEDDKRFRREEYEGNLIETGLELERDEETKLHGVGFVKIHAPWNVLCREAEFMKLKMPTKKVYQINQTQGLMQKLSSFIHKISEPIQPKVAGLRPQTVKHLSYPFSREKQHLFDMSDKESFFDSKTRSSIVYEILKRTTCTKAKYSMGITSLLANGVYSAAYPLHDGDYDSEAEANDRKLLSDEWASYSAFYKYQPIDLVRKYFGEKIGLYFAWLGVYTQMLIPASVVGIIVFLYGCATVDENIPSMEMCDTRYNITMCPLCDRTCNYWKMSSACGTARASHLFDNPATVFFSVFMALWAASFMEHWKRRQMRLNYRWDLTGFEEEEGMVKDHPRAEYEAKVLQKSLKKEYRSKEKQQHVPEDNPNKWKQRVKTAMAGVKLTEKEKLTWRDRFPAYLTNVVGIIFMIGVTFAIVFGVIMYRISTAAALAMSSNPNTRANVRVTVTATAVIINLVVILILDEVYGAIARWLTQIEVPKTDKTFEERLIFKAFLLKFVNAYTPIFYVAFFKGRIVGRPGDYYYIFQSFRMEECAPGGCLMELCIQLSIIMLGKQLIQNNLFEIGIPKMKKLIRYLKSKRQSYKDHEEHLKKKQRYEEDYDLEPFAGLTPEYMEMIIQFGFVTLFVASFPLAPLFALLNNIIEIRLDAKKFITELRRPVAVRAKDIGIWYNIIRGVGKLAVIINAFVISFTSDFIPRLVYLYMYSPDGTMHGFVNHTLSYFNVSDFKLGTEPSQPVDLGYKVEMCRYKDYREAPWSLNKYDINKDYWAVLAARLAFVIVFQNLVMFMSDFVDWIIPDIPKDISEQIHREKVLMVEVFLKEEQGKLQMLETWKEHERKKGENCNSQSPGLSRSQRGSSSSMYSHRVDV

## COc1cc(Nc2ccc([N+](=O)[O-])cc2C(=O)O)c2ccccc2c1 [Compound No. 46, N-((3-methoxy)naphthyl)-5-nitroanthranilic acid]
[1]
  IC50: 1.8 µM
[2]
  IC50: 1.8 µM

## COc1ccc(Nc2ccc([N+](=O)[O-])cc2C(=O)O)c2ccccc12 [Compound No. 47, N-((4-methoxy)naphthyl)-5-nitroanthranilic acid]
[1]
  IC50: 2.27 µM
[2]
  IC50: 2.27 µM

## O=C(O)c1cc([N+](=O)[O-])ccc1Nc1ccc(Br)c2ccccc12 [Compound No. 43, N-((4-bromo)naphthyl)-5-nitroanthranilic acid]
[1]
  IC50: 1.5 µM
[2]
  IC50: 1.5 µM

## O=C(O)c1ccc([N+](=O)[O-])cc1Nc1ccc(Cl)c2ccccc12 [Compound No. 33, N-((4-chloro)naphthyl)-4-nitroanthranilic acid]
[1]
  IC50: 4.8 µM
[2]
  IC50: 4.8 µM

## O=C(O)c1cc([N+](=O)[O-])ccc1Nc1ccc(I)c2ccccc12 [Compound No. 44, N-((4-iodo)naphthyl)-5-nitroanthranilic acid]
[2]
  IC50: 1.2 µM

## COc1ccc(Nc2cc([N+](=O)[O-])ccc2C(=O)O)c2ccccc12 [Compound No. 36, N-((4-methoxy)naphthyl)-4-nitroanthranilic acid]
[1]
  IC50: 15.2 µM
[2]
  IC50: 15.2 µM

## O=C(O)c1cc([N+](=O)[O-])ccc1Nc1ccc(F)c2ccccc12 [Compound No. 41, N-((4-fluoro)naphthyl)-5-nitroanthranilic acid]
[2]
  IC50: 3 µM

## O=C(O)c1cc([N+](=O)[O-])ccc1Nc1ccccc1 [drawing 38 R1=5-NO2 R3=H, reference compound]
Table 2 lower part, comparison phenyl anthranilic acid compounds of Korean Patent Registration No. 892591 (scaffold drawing 38)
  IC50: 42.5 µM

## O=C(O)c1cccc([N+](=O)[O-])c1Nc1ccc(Cl)c2ccccc12 [Compound No. 29, N-((4-chloro)naphthyl)-3-nitroanthranilic acid]
[2]
  IC50: 16.6 µM

## COc1cccc2c(Nc3ccc([N+](=O)[O-])cc3C(=O)O)cccc12 [Compound No. 48, N-((5-methoxy)naphthyl)-5-nitroanthranilic acid]
[1]
  IC50: 9.2 µM
[2]
  IC50: 9.2 µM

## O=C(O)c1cc([N+](=O)[O-])ccc1Nc1ccc(Cl)c2ccccc12 [Compound No. 42, N-((4-chloro)naphthyl)-5-nitroanthranilic acid]
[2]
  IC50: 8 µM

## O=C(O)c1ccc(C(F)(F)F)cc1Nc1ccc(Cl)c2ccccc12 [Compound No. 66, N-((4-chloro)naphthyl)-4-trifluoromethylanthranilic acid]
[2]
  IC50: 5.7 µM

## COc1ccc2c(Nc3ccc([N+](=O)[O-])cc3C(=O)O)cccc2c1 [Compound No. 49, N-((6-methoxy)naphthyl)-5-nitroanthranilic acid]
[1]
  IC50: 1.14 µM
[2]
  IC50: 1.14 µM

## O=C(O)c1cc([N+](=O)[O-])ccc1Nc1cccc2ccccc12 [Compound No. 40, N-naphthyl-5-nitroanthranilic acid]
[1]
  IC50: 5 µM
[2]
  IC50: 5 µM

## O=C(O)c1c(Nc2ccc(Br)c3ccccc23)cccc1[N+](=O)[O-] [Compound No. 70, N-((4-bromo)naphthyl)-6-nitroanthranilic acid]
[2]
  IC50: 8.6 µM

## N-naphthyl-4-trifluoromethylanthranilic acid [Compound No. 65]
[2]
  IC50: 54 µM

## O=C(O)c1ccc([N+](=O)[O-])cc1Nc1cccc2ccccc12 [Compound No. 31, N-naphthyl-4-nitroanthranilic acid]
[2]
  IC50: 8.5 µM

## COc1ccc2ccccc2c1Nc1ccc([N+](=O)[O-])cc1C(=O)O [Compound No. 45, N-((2-methoxy)naphthyl)-5-nitroanthranilic acid]
[1]
  IC50: 9.1 µM
[2]
  IC50: 9.1 µM

## O=C(O)c1ccc([N+](=O)[O-])cc1Nc1ccc(Br)c2ccccc12 [Compound No. 34, N-((4-bromo)naphthyl)-4-nitroanthranilic acid]
[2]
  IC50: 10.1 µM

## O=C(O)c1ccc([N+](=O)[O-])cc1Nc1ccc([N+](=O)[O-])c2ccccc12 [Compound No. 35, N-((4-nitro)naphthyl)-4-nitroanthranilic acid]
[2]
  IC50: 21.6 µM

## COc1cccc2cccc(Nc3ccc([N+](=O)[O-])cc3C(=O)O)c12 [Compound No. 51, N-((8-methoxy)naphthyl)-5-nitroanthranilic acid]
[1]
  IC50: 8.6 µM
[2]
  IC50: 8.6 µM

## N-naphthyl-3-nitroanthranilic acid [Compound No. 28]
[2]
  IC50: 54 µM

## COc1ccc2cccc(Nc3ccc([N+](=O)[O-])cc3C(=O)O)c2c1 [Compound No. 50, N-((7-methoxy)naphthyl)-5-nitroanthranilic acid]
[1]
  IC50: 3.4 µM
[2]
  IC50: 3.4 µM
